Test results: patent US8575321B2, “Benzylbenzene derivatives and methods of use” (Theracos, Inc., priority 2007, dated 2013)

Legend:
[1] = target: T1, human SGLT1 (Homo sapiens, UniProt P13866); assay: Methyl-α-D-[U-14C]glucopyranoside uptake assay in COS-7 cells expressing human SGLT1; assay type: cell-based; settings: 2 h incubation
T1 construct: Full-length human SGLT1 cDNA on pDream2.1 expression vector; host or cells: COS-7 cells (American Type Culture Collection)
T1 sequence (P13866 1-664): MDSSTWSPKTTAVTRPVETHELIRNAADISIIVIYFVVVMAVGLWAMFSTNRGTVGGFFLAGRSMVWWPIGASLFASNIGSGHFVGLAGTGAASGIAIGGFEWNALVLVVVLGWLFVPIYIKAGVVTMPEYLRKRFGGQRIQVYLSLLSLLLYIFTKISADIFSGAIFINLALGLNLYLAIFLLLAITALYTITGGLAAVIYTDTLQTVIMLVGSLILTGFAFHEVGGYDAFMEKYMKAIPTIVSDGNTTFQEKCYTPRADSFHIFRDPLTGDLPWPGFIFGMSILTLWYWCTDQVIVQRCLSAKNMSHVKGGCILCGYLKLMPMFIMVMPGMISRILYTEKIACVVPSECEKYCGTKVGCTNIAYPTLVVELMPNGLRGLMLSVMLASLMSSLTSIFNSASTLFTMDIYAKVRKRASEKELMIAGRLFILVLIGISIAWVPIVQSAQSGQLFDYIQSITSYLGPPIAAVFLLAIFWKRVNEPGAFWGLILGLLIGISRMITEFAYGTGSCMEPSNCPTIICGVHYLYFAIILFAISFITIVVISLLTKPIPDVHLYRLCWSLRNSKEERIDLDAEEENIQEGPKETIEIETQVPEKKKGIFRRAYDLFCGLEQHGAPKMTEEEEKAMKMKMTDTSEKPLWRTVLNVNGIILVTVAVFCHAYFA
Method: Full-length human SGLT1 cDNA on pDream2.1 expression vector was obtained from GenScript Corporation and propagated in Escherichia coli strain DH5α using Luria-Bertani (LB) medium containing ampicillin. Plasmid DNA was isolated using the QIAGEN Plasmid Midi Kit (QIAGEN Inc.). […] Transfected cells were stored in DMEM containing 10% dimethyl sulfoxide (DMSO) at −80° C.
(§1) Cells expressing SGLT1 or SGLT2 were seeded on 96-well ScintiPlate scintillating plates (PerkinElmer, Inc.) in DMEM containing 10% FBS (1×10^5 cells per well in 100 μl medium) incubated at 37° C. under 5% CO2 for 48 h prior to the assay. Cells were washed twice with 150 μl of either sodium buffer (137 mM NaCl, 5.4 mM KCl, 2.8 mM CaCl2, 1.2 mM MgCl2, 10 mM tris(hydroxymethyl)aminomethane/N^2-hydroxyethylpiperazine-N′-ethanesulfonic acid [Tris/Hepes], pH 7.2) or sodium-free buffer (137 mM N-methyl-glucamine, 5.4 mM KCl, 2.8 mM CaCl2, 1.2 mM MgCl2, 10 mM Tris/Hepes, pH 7.2). Test compound in 50 μl each of sodium or sodium-free buffer containing 40 μCi/ml methyl-α-D-[U-^14C]glucopyranoside (Amersham Biosciences/GE Healthcare), either with (symbols in parentheses) or without (symbols without parentheses) 25% human serum, was added per well of a 96-well plate and incubated at 37° C. with shaking for either 2 h (SGLT1 assay) or 1.5 h (SGLT2 assay). Cells were washed twice with 150 μl of wash buffer (137 mM N-methylglucamine, 10 mM Tris/Hepes, pH 7.2) and methyl-α-D-[U-^14C]glucopyranoside uptake was quantitated using a TopCount scintillation counter (PerkinElmer, Inc.). Sodium-dependent glucopyranoside uptake was measured by subtracting the values obtained with sodium-free buffer from those obtained using sodium buffer (average of triplicate determinations).

[2] = target: T2, human SGLT2 (Homo sapiens, UniProt P31639); assay: Methyl-α-D-[U-14C]glucopyranoside uptake assay in HEK293.ETN cells stably expressing human SGLT2; assay type: cell-based; settings: 1.5 h incubation
T2 construct: A full-length cDNA clone expressing human SGLT2
T2 sequence (P31639 1-672): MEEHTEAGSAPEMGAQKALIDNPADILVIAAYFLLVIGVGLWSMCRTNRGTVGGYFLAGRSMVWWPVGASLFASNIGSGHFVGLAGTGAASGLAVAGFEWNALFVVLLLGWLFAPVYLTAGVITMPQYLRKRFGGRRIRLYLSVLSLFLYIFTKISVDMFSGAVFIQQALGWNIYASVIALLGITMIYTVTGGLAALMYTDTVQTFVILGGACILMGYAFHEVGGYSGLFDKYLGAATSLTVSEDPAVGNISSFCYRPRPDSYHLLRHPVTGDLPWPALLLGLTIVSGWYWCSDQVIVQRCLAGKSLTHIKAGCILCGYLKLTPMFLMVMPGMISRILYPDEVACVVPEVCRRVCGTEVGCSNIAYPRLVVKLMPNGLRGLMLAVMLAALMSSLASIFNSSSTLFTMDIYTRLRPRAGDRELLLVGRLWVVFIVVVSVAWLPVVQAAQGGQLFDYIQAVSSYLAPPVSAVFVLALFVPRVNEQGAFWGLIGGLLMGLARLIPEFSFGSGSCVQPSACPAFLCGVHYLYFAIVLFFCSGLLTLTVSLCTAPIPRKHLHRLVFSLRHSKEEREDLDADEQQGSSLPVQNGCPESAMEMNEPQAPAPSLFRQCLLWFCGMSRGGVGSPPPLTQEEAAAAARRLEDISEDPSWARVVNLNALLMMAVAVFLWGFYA
Description: A full-length cDNA clone expressing human SGLT2 (GenScript Corporation) was subcloned into Hind III and Not I sites of pEAK15 expression vector. Clones harboring the cDNA inserts were identified by restriction analysis.
Plasmid containing human SGLT2 was linearized with Nsi I and purified by agarose gel electrophoresis. Using Lipofectamine 2000 Transfection Reagent (Invitrogen Corporation), DNA was transfected into HEK293.ETN cells and cultured in Dulbecco's Modified Eagle Medium (DMEM) containing 10% fetal bovine serum (FBS) at 37° C. under 5% CO2 for 24 h. Transfectants were selected in the same growth medium supplemented with puromycin (Invitrogen Corporation) for two weeks. Puromycin-resistant cells were recovered and seeded on a fresh 96-well plate (single cell per well) and cultured in the presence of puromycin until cells became confluent. Puromycin-resistant clones were evaluated for SGLT2 activity in the methyl-α-D-[U-^14C]glucopyranoside uptake assay described below.
as §1

[3] = incubation with 25% human serum (symbols in parentheses)
[4] = without human serum (symbols without parentheses)

| SMILES | IC50 [1, 3] [nM] | IC50 [2, 3] [nM] | IC50 [1, 4] [nM] | IC50 [2, 4] [nM] |
| --- | --- | --- | --- | --- |
| OC[C@H]1O[C@@H](c2ccc(Cl)c(Cc3ccc(CCCOC4CC4)cc3)c2)[C@H](O)[C@@H](O)[C@@H]1O [Compound DJ, (2S,3R,4R,5S,6R)-2-(4-chloro-3-(4-(3-cyclopropoxypropyl)benzyl)phenyl)-6-(hydroxymethyl)tetrahydro-2H-pyran-3,4,5-triol] | 1000 to 10000 | < 1000 | – | – |
| COCCOCCOc1ccc(Cc2cc([C@@H]3O[C@H](CO)[C@@H](O)[C@H](O)[C@H]3O)ccc2Cl)cc1 [Compound M, (2S,3R,4R,5S,6R)-2-(4-chloro-3-(4-(2-(2-methoxyethoxy)ethoxy)benzyl)phenyl)-6-(hydroxymethyl)tetrahydro-2H-pyran-3,4,5-triol] | – | – | 1000 to 10000 | < 1000 |
| C=CCOCCOc1ccc(Cc2cc([C@@H]3O[C@H](CO)[C@@H](O)[C@H](O)[C@H]3O)ccc2Cl)cc1 [Compound P, (2S,3R,4R,5S,6R)-2-(3-(4-(2-(allyloxy)ethoxy)benzyl)-4-chlorophenyl)-6-(hydroxymethyl)tetrahydro-2H-pyran-3,4,5-triol] | 1000 to 10000 | < 1000 | – | – |
| C#CCOCC(C)Oc1ccc(Cc2cc([C@@H]3O[C@H](CO)[C@@H](O)[C@H](O)[C@H]3O)ccc2Cl)cc1 (stereo partly drawn) [Compound T, (2S,3R,4R,5S,6R)-2-(4-chloro-3-(4-(1-(prop-2-ynyloxy)propan-2-yloxy)benzyl)phenyl)-6-(hydroxymethyl)tetrahydro-2H-pyran-3,4,5-triol] | > 10000 | < 1000 | – | – |

Second part, the compound after the results:

| IC50 [1, 3] [nM] | IC50 [2, 3] [nM] | IC50 [1, 4] [nM] | IC50 [2, 4] [nM] | SMILES |
| --- | --- | --- | --- | --- |
| 1000 to 10000 | < 1000 | – | – | C#CCOCCOc1ccc(Cc2cc([C@@H]3O[C@H](CO)[C@@H](O)[C@H](O)[C@H]3O)ccc2Cl)cc1 [Compound R, (2S,3R,4R,5S,6R)-2-(4-chloro-3-(4-(2-(prop-2-ynyloxy)ethoxy)benzyl)phenyl)-6-(hydroxymethyl)tetrahydro-2H-pyran-3,4,5-triol] |
| 1000 to 10000 | < 1000 | – | – | OCC#CCOc1ccc(Cc2cc([C@@H]3O[C@H](CO)[C@@H](O)[C@H](O)[C@H]3O)ccc2Cl)cc1 [Compound X, (2S,3R,4R,5S,6R)-2-(4-chloro-3-(4-(4-hydroxybut-2-ynyloxy)benzyl)phenyl)-6-(hydroxymethyl)tetrahydro-2H-pyran-3,4,5-triol] |
| > 10000 | < 1000 | – | – | COCC#CCOc1ccc(Cc2cc([C@@H]3O[C@H](CO)[C@@H](O)[C@H](O)[C@H]3O)ccc2Cl)cc1 [Compound Z, (2S,3R,4R,5S,6R)-2-(4-chloro-3-(4-(4-methoxybut-2-ynyloxy)benzyl)phenyl)-6-(hydroxymethyl)tetrahydro-2H-pyran-3,4,5-triol] |
